Reference: patent US6265423A, “Aromatic polycyclic retinoid-type derivatives, method for preparing same, and use thereof for making pharmaceutical and cosmetic compositions” (priority 1996, dated 2001)

Tests used:
Gal4-RARβ = experiment: Transactivation, chimerical receptor Gal4-RARβ (transitory transfection of HeLa); assay type: cell-based; conditions: 100% = TTNPB 10^-8 M
Gal4-RARα = experiment: Transactivation, chimerical receptor Gal4-RARα (transitory transfection of HeLa); assay type: cell-based; conditions: 100% = TTNPB 10^-8 M
[1] = test system: response element RARE of RARβ gene, endogenic retinoic receptors, HRLN lineage; experiment: HRLN transactivation (RARE-luciferase, stably transfected HeLa); assay type: cell-based
Procedure, shortened: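 HeLa cells stably carrying a RARE3-tk-Luc reporter (natural RARβ RARE, GGTTCAnnnnnAGTTCA) report activation by endogenous RARs/RXRs. Assays run in duplicate in phenol red-free DMEM with 3% dextran-charcoal-treated FCS, protected from light; luciferase read-out.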

RARα-ERcassette = experiment: Transactivation, chimerical receptor RARα-ERcassette (HeLa); assay type: cell-based; conditions: TTNPB 10^-8 M = 100
Procedure, shortened: (§1)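 Chimeric RARα, β or γ retaining A, B, D, E and F regions but carrying the oestrogen receptor C domain drives luciferase through an ERE in transiently transfected HeLa cells. Treatment lasts 16 h.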

[2] = test system: RARE, endogenic RAR and RXR receptors, HRL+N lineage; experiment: HRL+N transactivation (RARE-luciferase, stably transfected HeLa); assay type: cell-based; parameters: Emax: dose or concentration left out as unconfirmed
Method: MCF-7 cells and HeLa are cultivated in DMFM with phenol red to which 5% foetal calf serum is added. The T47-D cells are cultivated in RPMI to which 10% foetal calf serum is added. The experimental tests are carried out in DMEM without phenol red to which foetal calf serum treated with dextran carbon is added at 3%. […] The experiments using the different retinoids are carried out sheltered from the light so as to avoid any isomerisation.
Certain properties of the retinoids have been determined using more developed cellular models. These models consist of cellular lineages transfected in a stable fashion by recombinant plasmids which place the expression of the gene of the luciferase under the control of different nuclear response elements. […] The tests carried out in duplicate are described below for each of these models.
The cellular lineages HRLN and HRL+N allow one to study the activation of an RARE by endogenic receptors using ligands at physiological concentrations. These lineages derive from HeLa cells transfected in a stable fashion by a reporter gene which places the expression of the gene of the luciferase under the control of a nuclear response element RARE (RARE3 -tk-Luc). The HeLa cells express all the known receptors of the retinoic acid (RARα,β,γ and RXRα,β,γ) with a predominance of RARα and RXRα. The response element RARE used for the HRLN cells corresponds to the sequence of the natural gene of the RARβ receptor (GGTTCAnnnnnAGTTCA). The HRL+N cells comprise the sequence GAGTGAnnnnnCGGTGA.
The HRL+N lineage allows one to visualise a co-activation of the RAR and RXR receptors at the level of the RAR-RXR hetero-dimer.

[3] = test system: A549 human pulmonary cancer cells; experiment: MTT test, proliferation of A549; assay type: cell-based
[4] = test system: RAR-ERcassettes (RARα, RARβ, RARγ); experiment: Chimerical receptors RAR-ERcassettes, overall profile; assay type: cell-based
Procedure, shortened: as §1

RARβ-ERcassette = experiment: Transactivation, chimerical receptor RARβ-ERcassette (HeLa); assay type: cell-based; conditions: TTNPB 10^-8 M = 100
Procedure, shortened: as §1

RARγ-ERcassette = experiment: Transactivation, chimerical receptor RARγ-ERcassette (HeLa); assay type: cell-based; conditions: TTNPB 10^-8 M = 100
Procedure, shortened: as §1

[5] = test system: AP-1, MTLN lineage (MCF-7); experiment: Anti-AP-1 effect, MTLN lineage activated by TPA; assay type: cell-based, human
Procedure, shortened: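 MCF-7-derived MTLN cells stably carrying a p(TRE)3-tk-Luc reporter, activated with 10^-7 M TPA, run in duplicate. Luciferase inhibition by compounds given as percentage after subtracting basal cell activity, reported as a range from several experiments.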

[6] = Homo sapiens, A549, 72 h, read-out: level of proliferation
[7] = Homo sapiens, MCF7, read-out: anti-AP-1 effect, inhibition

SMILES | GAL4-RAR RARβ transactivation (Gal4-RARβ; 10^-6 M) [%] | GAL4-RAR RARβ transactivation (Gal4-RARβ; 10^-7 M) [%] | GAL4-RAR RARβ transactivation (Gal4-RARβ; 10^-8 M) [%] | GAL4-RAR RARα transactivation (Gal4-RARα; 10^-6 M) [%] | GAL4-RAR RARα transactivation (Gal4-RARα; 10^-7 M) [%] | GAL4-RAR RARα transactivation (Gal4-RARα; 10^-8 M) [%] | RAR-ERcassette RARα transactivation (RARα-ERcassette; 10^-6 M) [%] | RAR-ERcassette RARα transactivation (RARα-ERcassette; 10^-7 M) [%] | RAR-ERcassette RARα transactivation (RARα-ERcassette; 10^-8 M) [%] | RAR-ERcassette profile (in words) [4] | RAR-ERcassette RARβ transactivation (RARβ-ERcassette; 10^-6 M) [%] | RAR-ERcassette RARβ transactivation (RARβ-ERcassette; 10^-7 M) [%] | RAR-ERcassette RARβ transactivation (RARβ-ERcassette; 10^-8 M) [%] | RAR-ERcassette RARγ transactivation (RARγ-ERcassette; 10^-6 M) [%] | RAR-ERcassette RARγ transactivation (RARγ-ERcassette; 10^-7 M) [%] | RAR-ERcassette RARγ transactivation (RARγ-ERcassette; 10^-8 M) [%] | inhibition at 0.1 µM [5, 7] [%] | also measured
CC1=C(/C=C/C(C)=C/C=C/C(C)=C/C(=O)O)C(C)(C)CCC1 [CB16178, all-trans retinoic acid, reference compound] | 92 | 93 | 104 | 108 | 102 | 82 | 443 | 249 | 127 | induce an over-expression of luciferase in comparison to the induction brought about by a synthetic compound (TTNPB) | 475 | 270 | 128 | 189 | 122 | 114 | 28 to 44 | HRLN transactivation (in words) [1]: induce a dose-dependent activation; RAR-ERcassette RARα transactivation (RARα-ERcassette; 10^-9 M): 65%; Emax ([2]; Homo sapiens, HeLa, read-out: HRL+N transactivation, Emax): 225%; activity at 0.01 µM [3, 6]: 78.8%; activity at 1 µM [3, 6]: 89.2%; activity at 100 µM [3, 6]: 22.3%; effect on cellular increase, A549 (in words) ([3]; MTT test): inhibit the proliferation of the A549 lineage at 10^-6 M and 10^-8 M; RAR-ERcassette RARβ transactivation (RARβ-ERcassette; 10^-9 M): 93%; RAR-ERcassette RARγ transactivation (RARγ-ERcassette; 10^-9 M): 86%; inhibition at 0.01 µM [5, 7]: 22 to 33%
Cc1cc2c(cc1C(=O)c1ccc(C(=O)O)cc1)C(C)(C)CCC2(C)C [LGD-CB14499, reference compound] | 9 | 1 | 0 | 17 | 4 | 1 | 42 | 12 | 4 | transcriptional power appears higher notably through the RARβ-ERcassette | 130 | 58 | 10 | 66 | 31 | 13 | 17 to 30 | HRL+N transactivation (in words) [2]: induce a stronger transactivation with the HRL+N cells; anti-AP-1 effect (in words) ([5]; TPA-activated MTLN cells): causes an inhibition of the AP-1 route
